The target of series [1] is T1, ligand binding domain of the estrogen receptor alpha chain (ERαLBD) (Homo sapiens, UniProt P03372).
T1 construct: expressed in transfected cells; host or cells: Huh-7 human hepatoma cells, transient transfection with FuGENE 6
T1 sequence (P03372 311-547 limits assumed): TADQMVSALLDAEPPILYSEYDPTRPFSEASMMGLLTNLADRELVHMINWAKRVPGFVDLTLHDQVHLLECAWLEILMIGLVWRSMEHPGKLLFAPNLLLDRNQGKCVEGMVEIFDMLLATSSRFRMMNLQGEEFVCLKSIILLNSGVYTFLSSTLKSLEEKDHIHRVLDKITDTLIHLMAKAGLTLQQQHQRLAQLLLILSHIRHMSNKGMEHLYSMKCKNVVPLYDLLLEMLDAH
The series can be described thus: ER agonist cell assay (ERα), Huh-7 co-transfection, luciferase. It counts as cell-based. Particulars: for pEC50: Huh-7 cells co-transfected with pG5luc and ERαLBD, overnight incubation, luciferase; for ERα % of Max E2 Response: percent of the maximum estradiol fold change, Huh-7, pG5luc and ERαLBD.

Series [2] concerns the target ligand binding domain of the estrogen receptor beta chain (ERβLBD) that contained a point mutation at amino acid residue 418 (pm418) (Homo sapiens, UniProt Q92731). The series can be described thus: ER agonist cell assay (ERβ), Huh-7 co-transfection, luciferase. It counts as cell-based. Particulars: for pEC50: Huh-7 cells co-transfected with pG5luc and ERβLBD(pm418), overnight incubation, luciferase; for ERβ % of Max E2 Response: percent of the maximum estradiol fold change, Huh-7, pG5luc and ERβLBD(pm418).

The subject of series [3] is hairless female SKH, 1-hr mice. The series can be described thus: Animal model for reversal of wrinkles: skin thickness model, topical dosing, skin thickness and hyaluronic acid. It counts as in vivo, mouse. Particulars: three days. From the text:
Animal Model for Reversal of Wrinkles
Uzuka et al. describes an increase in mouse back skin water content, hyaluronic acid (HA) content, and hyaluronic acid synthetase activity following topical application or subcutaneous injection of estradiol (Biochimica et Biophysica Acta, 627, 199-206, 1980; Biochimica et Biophysica Acta 673, 387-393, 1981). […] Thus, this model may be used to as a preliminary screen to assess the potential for estrogen modulators to alleviate wrinkles in human skin.
The skin thickness model uses hairless female SKH, 1-hr mice. Mice aged to approximately 11 weeks are introduced into the laboratory environment and acclimated for at least 1 week prior to use in the study may be used. Each group typically consisted of 7 animals that may be run in parallel with vehicle and the positive control estradiol. Based on binding and/or cellular assay data, compounds are chosen for screening in this model. Those compounds include the products of Examples, 2, 9, 15, 46, 47, 48, 51, 52, 61, 135, and 137. Prior to topical application to mouse dorsal skin, a sufficient quantity of each compound is dissolved in a solvent generally consisting of ethanol and propylene glycol (70/30% v/v) (vehicle) to achieve the final concentration specified in Table C below. Animals are dosed topically QD or BID, for three days. Each dose consisted of 100 microliters of vehicle or drug applied uniformly to the entire dorsal surface (˜18 cm^2). All animals are sacrificed approximately 18-24 hours after the final dose. Skin thickness (ST) is measured using a caliper. HA is extracted from the skin and quantitated using commercially-available enzyme-linked immunosorbent assays (ELISAs)(HA).
Data are presented as percent of the estradiol response after subtracting out the ST for vehicle-treated mouse skin. The estradiol response is set to 100% and the vehicle resoibse becines 0%.

Where [4] appears, read: 1% topical, BID, vehicle 0%, estradiol 100%.

pEC50: −log10 of the molar value. Several values for one entry are separate records, joined by “and”; a condition that tells them apart may be missing. Equal values may be shown once. Some results are limits rather than exact numbers.

A word on the pEC50: it is the negative decadic logarithm of the EC50, by convention in mol/L. Lower therefore signals a large EC50. In general, melting point refers to the temperature, or range, at which the solid turns liquid.

In turn, `C[C@@H](O)C1(c2onc(-c3ccc(O)cc3)c2-c2ccccc2)CC1` [Example 46, (R)-(−)-4-{5-[1-(1-Hydroxy-ethyl)-cyclopropyl]-4-phenyl-isoxazol-3-yl}-phenol] returned a melting point of 219 to 221 °C. In series [1], the negative logarithm of the EC50 (pEC50) is 7.48 and the “ERα % of Max E2 Response” value amounted to 106%. Also, in series [2], the pEC50 was 7.36 and the “ERβ % of Max E2 Response” value came out at 99.7%. For the same compound, in series [3] (0.015% topical, BID), the “HA (hyaluronic acid), percent of the estradiol response” value (“HA (hyaluronic acid), percent” for short) amounted to 11% and the “ST (skin thickness), percent of the estradiol response” value (from here on “ST (skin thickness), percent”) amounted to 20%. For the same compound, in series [3] (0.05% topical, BID), the “HA (hyaluronic acid), percent” value is recorded as 52% and the “ST (skin thickness), percent” value came to 47%. Besides, in series [3] (0.15% topical, BID), the “HA (hyaluronic acid), percent” value came out at 55% and the “ST (skin thickness), percent” value came out at 65%. In addition, in series [3] (0.5% topical, BID), the “HA (hyaluronic acid), percent” value was 39% and 68% and 76%; the “ST (skin thickness), percent” value is 53% and 71% and 73%. Also, in series [3] (1% topical, QD), the “HA (hyaluronic acid), percent” value stood at 48% and the “ST (skin thickness), percent” value stood at 36%.

`CCC(O)C1(c2onc(-c3ccc(O)cc3)c2-c2ccccc2)CC1` (racemic) [Example 47, (±)-4-{5-[1-(1-Hydroxy-propyl)-cyclopropyl]-4-phenyl-isoxazol-3-yl}-phenol] showed a melting point of 175 to 176 °C. In series [1], the pEC50 is 7.65 and the “ERα % of Max E2 Response” value was found to be 92%. Besides, in series [2], the negative logarithm of the EC50 (pEC50) was 6.84 and the “ERβ % of Max E2 Response” value was found to be 87.4%. In series [3] (setting [4]), the “HA (hyaluronic acid), percent” value stood at 59% and the “ST (skin thickness), percent” value came out at 53%.

`Oc1ccc(-c2noc(C3CC3)c2-c2ccccc2)cc1` [Example 35, 4-(5-Cyclopropyl-4-phenyl-isoxazol-3-yl)-phenol]: the melting point lay within 197 to 200 °C. Also, in series [1], the pEC50 is 6.77 and the “ERα % of Max E2 Response” value is recorded as 25%. Further, in series [2], the pEC50 is 6.89 and the “ERβ % of Max E2 Response” value worked out at 5.78%.

`Oc1ccc(-c2noc(C3(COc4c(F)cccc4OC(F)(F)F)CC3)c2-c2ccccc2)cc1` [Example 5, 4-{5-[1-(2-Fluoro-6-trifluoromethoxy-phenoxymethyl)-cyclopropyl]-4-phenyl-isoxazol-3-yl}-phenol] came in with a melting point of 132 to 133 °C. In addition, in series [1], the negative logarithm of the EC50 (pEC50) was 7.34 and the “ERα % of Max E2 Response” value is 19.3%. Also, in series [2], the negative-log EC50 (pEC50) was under 5.00 and the “ERβ % of Max E2 Response” value was over 4.51%.

Take `CCC(NCC1(c2onc(-c3ccc(O)cc3)c2-c2ccccc2)CC1)c1ccccc1` (racemic) [Example 25, (±)-4-(4-Phenyl-5-{1-[(1-phenyl-propylamino)-methyl]-cyclopropyl}-isoxazol-3-yl)-phenol]: the melting point is 126 to 127 °C. In addition, in series [1], the negative-log EC50 (pEC50) is 7.58 and the “ERα % of Max E2 Response” value is 18.2%. In series [2], the pEC50 is under 5.00 and the “ERβ % of Max E2 Response” value is over 0.571%.

Compound `CC[C@@H](O)C1(c2onc(-c3ccc(O)cc3)c2-c2ccccc2)CC1` [Example 48, (R)-(−)-4-{5-[1-(1-Hydroxy-propyl)-cyclopropyl]-4-phenyl-isoxazol-3-yl}-phenol] gave a melting point of 163 to 164 °C. In series [1], the pEC50 is 7.50 and the “ERα % of Max E2 Response” value is recorded as 88.8%. In series [2], the negative-log EC50 (pEC50) was 7.07 and the “ERβ % of Max E2 Response” value is 71.8%. Also, in series [3] (0.03% topical, BID), the “HA (hyaluronic acid), percent” value stood at 26% and the “ST (skin thickness), percent” value was 33%. In addition, in series [3] (0.03% topical, QD), the “HA (hyaluronic acid), percent” value was 18% and the “ST (skin thickness), percent” value was found to be 13%. Moreover, in series [3] (0.1% topical, BID), the “HA (hyaluronic acid), percent” value was found to be 63% and the “ST (skin thickness), percent” value was 58%. For the same compound, in series [3] (0.1% topical, QD), the “HA (hyaluronic acid), percent” value is 32% and the “ST (skin thickness), percent” value came to 29%. In addition, in series [3] (0.3% topical, BID), the “HA (hyaluronic acid), percent” value is 96% and the “ST (skin thickness), percent” value is 80%. In addition, in series [3] (0.3% topical, QD), the “HA (hyaluronic acid), percent” value stood at 41% and the “ST (skin thickness), percent” value is 57%. Also, in series [3] (0.5% topical, BID), the “HA (hyaluronic acid), percent” value was 84% and the “ST (skin thickness), percent” value was 78%. Besides, in series [3] (setting [4]), the “ST (skin thickness), percent” value is 72% and 89%. In addition, in series [3] (1% topical, QD), the “HA (hyaluronic acid), percent” value was 47% and 42%; the “ST (skin thickness), percent” value is 64% and 41%.

In the case of `CCOc1ncccc1OCC1(c2onc(-c3ccc(O)cc3)c2-c2ccccc2)CC1` [Example 6, 4-{5-[1-(2-Ethoxy-pyridin-3-yloxymethyl)-cyclopropyl]-4-phenyl-isoxazol-3-yl}-phenol], the melting point fell in the range of 190 to 192 °C. In series [1], the pEC50 was 6.63 and the “ERα % of Max E2 Response” value was found to be 9.48%. Further, in series [2], the negative-log EC50 (pEC50) was under 5.00 and the “ERβ % of Max E2 Response” value was over 3.19%.

In turn, `Oc1ccc(-c2noc(C3(C(O)(C4CC4)C4CC4)CC3)c2-c2ccccc2)cc1` [Example 99, 4-{5-(1-(Dicyclopropyl-hydroxy-methyl)-cyclopropyl]-4-phenyl-isoxazol-3-yl}-phenol] gave a melting point of 169 to 170 °C. Moreover, in series [1], the pEC50 is 7.42 and the “ERα % of Max E2 Response” value turned out to be 45.3%. The “ERβ % of Max E2 Response” value in series [2] turned out to be 0.679%.

Consider `OCC1(c2onc(-c3ccc(O)cc3)c2-c2ccccc2)CC1` [Example 2, 4-[5-(1-Hydroxymethyl-cyclopropyl)-4-phenyl-isoxazol-3-yl]-phenol], for which the melting point was in the range of 210 to 211 °C. For the same compound, in series [3] (1% topical, QD), the “HA (hyaluronic acid), percent” value came out at 15% and the “ST (skin thickness), percent” value is given as 19%.

In turn, `CCC(O)(CC)C1(c2onc(-c3ccc(O)cc3)c2-c2ccccc2)CC1` [Example 50, 4-{5-[1-(1-Ethyl-1-hydroxy-propyl)-cyclopropyl]-4-phenyl-isoxazol-3-yl}-phenol] had a melting point of 118 to 119 °C. Further, in series [1], the negative logarithm of the EC50 (pEC50) is 6.91 and the “ERα % of Max E2 Response” value is on record as 80.2%. In addition, the “ERβ % of Max E2 Response” value in series [2] was 1%.

These data come from patent publication US7470715B2, “Estrogen modulators” (Pfizer Inc., priority 2005, dated 2008).
